The results in this text go back to ChEMBL document CHEMBL4007424, “Design and Synthesis of Enantiomerically Pure Decahydroquinoxalines as Potent and Selective κ-Opioid Receptor Agonists with Anti-Inflammatory Activity in Vivo” (J Med Chem, 2017).

Sigma non-opioid intracellular receptor 1 (Cavia porcellus), sequence (Q60492 whole entry): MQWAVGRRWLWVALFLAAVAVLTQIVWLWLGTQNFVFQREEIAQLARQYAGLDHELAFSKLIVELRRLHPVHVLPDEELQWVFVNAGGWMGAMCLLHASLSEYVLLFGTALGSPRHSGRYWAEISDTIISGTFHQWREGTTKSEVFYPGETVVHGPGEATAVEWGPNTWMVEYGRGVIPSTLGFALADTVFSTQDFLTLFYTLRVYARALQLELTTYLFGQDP

The species entered for the first data set is Sus scrofa. Kind of data set: Displacement of [3H]-(+)-MK 801 from PCP binding site of NMDA receptor in pig brain cortex membranes at 10 uM after 120 mins by solid scintillation counting. The format is cell membranes.
Conditions: not given
`COC(=O)N1CCN(C(=O)Cc2ccc(C(F)(F)F)c(Cl)c2)[C@@H]2[C@@H](N3CC[C@H](O)C3)CCC[C@@H]21` returned an inhibition of 0%.

As for `CS(=O)(=O)N1CCN(C(=O)Cc2ccc(Cl)c(F)c2)[C@@H]2[C@@H](N3CC[C@H](O)C3)CCC[C@@H]21`, the inhibition was found to be 16%.

With `CS(=O)(=O)N1CCN(C(=O)Cc2ccc(Cl)c(Cl)c2)[C@@H]2[C@@H](N3CCCC3)CCC[C@@H]21`, the inhibition was determined as 0%.

`COC(=O)N1CCN(C(=O)Cc2ccc(Cl)c(Cl)c2)[C@@H]2[C@@H](N3CC[C@H](O)C3)CCC[C@@H]21` came in with an inhibition of 21%.

Turning to `O=C(Cc1ccc(Cl)c(Cl)c1)N1CCN[C@H]2CCC[C@H](N3CCCC3)[C@H]21`, the inhibition was determined as 0%.

Regarding `CC(C)NC(=O)N1CCN(C(=O)Cc2ccc(Cl)c(Cl)c2)[C@@H]2[C@@H](N3CCCC3)CCC[C@@H]21`, the inhibition was 0%.

`COC(=O)N1CCN(C(=O)Cc2ccc(Cl)c(Cl)c2)[C@@H]2[C@@H](N3CC[C@@H](O)C3)CCC[C@@H]21` yielded an inhibition of 55%.

The next data set deals with Kappa-type opioid receptor (Homo sapiens, UniProt P41145). The data set can be described thus: Agonist activity at recombinant human kappa-type opioid receptor expressed in HEK293 cells at 1 uM after 30 mins by [35S]GTPgammaS binding assay. Type of data set: functional, cell-based.
Kappa-type opioid receptor, sequence (P41145 whole entry): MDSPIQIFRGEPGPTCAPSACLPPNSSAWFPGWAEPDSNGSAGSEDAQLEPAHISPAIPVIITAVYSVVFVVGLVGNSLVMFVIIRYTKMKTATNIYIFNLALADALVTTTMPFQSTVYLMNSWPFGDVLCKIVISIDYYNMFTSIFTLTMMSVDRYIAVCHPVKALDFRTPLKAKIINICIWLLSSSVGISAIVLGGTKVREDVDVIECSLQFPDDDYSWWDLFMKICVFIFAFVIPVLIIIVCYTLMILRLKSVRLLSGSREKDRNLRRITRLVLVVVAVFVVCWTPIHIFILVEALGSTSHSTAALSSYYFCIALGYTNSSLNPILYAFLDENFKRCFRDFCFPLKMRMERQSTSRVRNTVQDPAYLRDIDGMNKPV
Conditions: not given
Turning to `CN(C)S(=O)(=O)N1CCN(C(=O)Cc2ccc(Cl)c(Cl)c2)[C@@H]2[C@@H](N3CCCC3)CCC[C@@H]21`, the Activity came out at 105%.

As to `COC(=O)N1CCN(C(=O)Cc2ccc(C(F)(F)F)c(Cl)c2)[C@@H]2[C@@H](N3CC[C@H](O)C3)CCC[C@@H]21`, the Activity came to 100%.

Turning to `CS(=O)(=O)N1CCN(C(=O)Cc2ccc(Cl)c(F)c2)[C@@H]2[C@@H](N3CC[C@H](O)C3)CCC[C@@H]21`, the Activity came out at 105%.

For the molecule `CS(=O)(=O)N1CCN(C(=O)Cc2ccc(Cl)c(Cl)c2)[C@@H]2[C@@H](N3CCCC3)CCC[C@@H]21`, the Activity turned out to be 106%.

On to `COC(=O)N1CCN(C(=O)Cc2ccc(Cl)c(Cl)c2)[C@@H]2[C@@H](N3CC[C@H](O)C3)CCC[C@@H]21`, for which the Activity amounted to 113%.

With `CC(C)NC(=O)N1CCN(C(=O)Cc2ccc(Cl)c(Cl)c2)[C@@H]2[C@@H](N3CCCC3)CCC[C@@H]21`, the Activity was found to be 100%.

`COC(=O)N1CCN(C(=O)Cc2ccc(Cl)c(Cl)c2)[C@@H]2[C@@H](N3CC[C@@H](O)C3)CCC[C@@H]21`: the Activity worked out at 109%.

A further data set addresses Sigma non-opioid intracellular receptor 1 (Cavia porcellus) (UniProt Q60492). Kind of data set: Displacement of [3H]-(+)-pentazocine from sigma1-type […] receptor in guinea pig cortex membranes at 1 uM after 120 mins by solid scintillation counting. Type of data set: cell membranes.
Conditions: not given
Consider `CN(C)S(=O)(=O)N1CCN(C(=O)Cc2ccc(Cl)c(Cl)c2)[C@@H]2[C@@H](N3CCCC3)CCC[C@@H]21`, for which the inhibition was 0%.

In the case of `COC(=O)N1CCN(C(=O)Cc2ccc(C(F)(F)F)c(Cl)c2)[C@@H]2[C@@H](N3CC[C@H](O)C3)CCC[C@@H]21`, the inhibition was 30%.

Regarding `CS(=O)(=O)N1CCN(C(=O)Cc2ccc(Cl)c(F)c2)[C@@H]2[C@@H](N3CC[C@H](O)C3)CCC[C@@H]21`, the inhibition worked out at 12%.

Molecule `CS(=O)(=O)N1CCN(C(=O)Cc2ccc(Cl)c(Cl)c2)[C@@H]2[C@@H](N3CCCC3)CCC[C@@H]21` returned an inhibition of 0%.

The molecule `COC(=O)N1CCN(C(=O)Cc2ccc(Cl)c(Cl)c2)[C@@H]2[C@@H](N3CC[C@H](O)C3)CCC[C@@H]21` registered an inhibition of 0%.

`CC(C)NC(=O)N1CCN(C(=O)Cc2ccc(Cl)c(Cl)c2)[C@@H]2[C@@H](N3CCCC3)CCC[C@@H]21`: the inhibition worked out at 0%.

`COC(=O)N1CCN(C(=O)Cc2ccc(Cl)c(Cl)c2)[C@@H]2[C@@H](N3CC[C@@H](O)C3)CCC[C@@H]21` displayed an inhibition of 0%.

A further data set concerns Rattus norvegicus. The data set can be described thus: Toxicity in Wistar Han rat assessed as assessed as clinical signs changes at 5 mg/kg, iv after 1 hr. The format is organism-based. The settings on record: in vivo.
Regarding `COC(=O)N1CCN(C(=O)Cc2ccc(F)c(F)c2)[C@@H]2[C@@H](N3CC[C@H](O)C3)CCC[C@@H]21.Cl`, the Activity result is “Non-Toxic”.

For `COC(=O)N1CCN(C(=O)Cc2ccc(Cl)cc2)[C@@H]2[C@@H](N3CC[C@H](O)C3)CCC[C@@H]21.Cl`, the Activity result is recorded as “Non-Toxic”.

For the molecule `COC(=O)N1CCN(C(=O)Cc2ccc(Cl)c(F)c2)[C@@H]2[C@@H](N3CC[C@H](O)C3)CCC[C@@H]21.Cl`, the Activity entry is on record as “Non-Toxic”.

On to `COC(=O)N1CCN(C(=O)Cc2ccc(F)c(Cl)c2)[C@@H]2[C@@H](N3CC[C@H](O)C3)CCC[C@@H]21.Cl`, for which the Activity entry is reported as “Non-Toxic”.

With `COC(=O)N1CCN(C(=O)Cc2cccc(Cl)c2)[C@@H]2[C@@H](N3CC[C@H](O)C3)CCC[C@@H]21.Cl`, the Activity result is given as “Non-Toxic”.

System in a further data set: not listed separately
Kind of data set: Plasma concentration in Wistar Han rat at 5 mg/kg, iv measured 0.25 hrs post compound administration. The format is ADME, organism-based.
Conditions: not given
For the molecule `COC(=O)N1CCN(C(=O)Cc2ccc(F)c(F)c2)[C@@H]2[C@@H](N3CC[C@H](O)C3)CCC[C@@H]21.Cl`, the concentration at 0.25 h came to 1.41 µg/mL.

In turn, `COC(=O)N1CCN(C(=O)Cc2ccc(Cl)cc2)[C@@H]2[C@@H](N3CC[C@H](O)C3)CCC[C@@H]21.Cl` gave a concentration at 0.25 h of 1.34 µg/mL.

Molecule `COC(=O)N1CCN(C(=O)Cc2ccc(Cl)c(F)c2)[C@@H]2[C@@H](N3CC[C@H](O)C3)CCC[C@@H]21.Cl` registered a concentration at 0.25 h of 1.35 µg/mL.

`COC(=O)N1CCN(C(=O)Cc2ccc(F)c(Cl)c2)[C@@H]2[C@@H](N3CC[C@H](O)C3)CCC[C@@H]21.Cl`: the concentration at 0.25 h stood at 0.97 µg/mL.

`COC(=O)N1CCN(C(=O)Cc2cccc(Cl)c2)[C@@H]2[C@@H](N3CC[C@H](O)C3)CCC[C@@H]21.Cl` yielded a concentration at 0.25 h of 1.5 µg/mL.

System in the next data set: not listed separately
Kind of data set: Drug level in Wistar Han rat brain at 5 mg/kg, iv measured 1 hr post compound administration. Type of data set: ADME, organism-based. To be noted: read-out: Drug uptake.
For the molecule `COC(=O)N1CCN(C(=O)Cc2ccc(F)c(F)c2)[C@@H]2[C@@H](N3CC[C@H](O)C3)CCC[C@@H]21.Cl`, the concentration at 1 h was determined as 46.4 ng/g.

For `COC(=O)N1CCN(C(=O)Cc2ccc(Cl)cc2)[C@@H]2[C@@H](N3CC[C@H](O)C3)CCC[C@@H]21.Cl`, the concentration at 1 h was 70.6 ng/g.

On to `COC(=O)N1CCN(C(=O)Cc2ccc(Cl)c(F)c2)[C@@H]2[C@@H](N3CC[C@H](O)C3)CCC[C@@H]21.Cl`, for which the concentration at 1 h was 66.2 ng/g.

In the case of `COC(=O)N1CCN(C(=O)Cc2ccc(F)c(Cl)c2)[C@@H]2[C@@H](N3CC[C@H](O)C3)CCC[C@@H]21.Cl`, the concentration at 1 h stood at 44 ng/g.

`COC(=O)N1CCN(C(=O)Cc2cccc(Cl)c2)[C@@H]2[C@@H](N3CC[C@H](O)C3)CCC[C@@H]21.Cl`: the concentration at 1 h was determined as 41.2 ng/g.

For another data set, the species on record is Rattus norvegicus. Kind of data set: Displacement of [3H]-DTG from sigma 2 receptor in rat liver membranes at 1 uM after 120 mins by scintillation counting. Type of data set: cell membranes. The settings on record: Membrane.
`CN(C)S(=O)(=O)N1CCN(C(=O)Cc2ccc(Cl)c(Cl)c2)[C@@H]2[C@@H](N3CCCC3)CCC[C@@H]21` showed an inhibition of 0%.

Take `COC(=O)N1CCN(C(=O)Cc2ccc(C(F)(F)F)c(Cl)c2)[C@@H]2[C@@H](N3CC[C@H](O)C3)CCC[C@@H]21`: the inhibition is 5%.

On to `CS(=O)(=O)N1CCN(C(=O)Cc2ccc(Cl)c(F)c2)[C@@H]2[C@@H](N3CC[C@H](O)C3)CCC[C@@H]21`, for which the inhibition came to 0%.

`CS(=O)(=O)N1CCN(C(=O)Cc2ccc(Cl)c(Cl)c2)[C@@H]2[C@@H](N3CCCC3)CCC[C@@H]21`: the inhibition stood at 5%.

For `COC(=O)N1CCN(C(=O)Cc2ccc(Cl)c(Cl)c2)[C@@H]2[C@@H](N3CC[C@H](O)C3)CCC[C@@H]21`, the inhibition was 12%.

Molecule `O=C(Cc1ccc(Cl)c(Cl)c1)N1CCN[C@H]2CCC[C@H](N3CCCC3)[C@H]21` had an inhibition of 0%.

As for `CC(C)NC(=O)N1CCN(C(=O)Cc2ccc(Cl)c(Cl)c2)[C@@H]2[C@@H](N3CCCC3)CCC[C@@H]21`, the inhibition was determined as 0%.

Consider `COC(=O)N1CCN(C(=O)Cc2ccc(Cl)c(Cl)c2)[C@@H]2[C@@H](N3CC[C@@H](O)C3)CCC[C@@H]21`, for which the inhibition was determined as 13%.

In a further data set the target is Mu-type opioid receptor (Cavia porcellus) (UniProt P97266). The data set can be described thus: Displacement of [3H]DAMGO from mu-type opioid receptor in guinea pig brain membranes at 1 uM after 120 mins by solid scintillation counting. To be noted: Membrane. The format is cell membranes.
Mu-type opioid receptor (Cavia porcellus), sequence (P97266 whole entry): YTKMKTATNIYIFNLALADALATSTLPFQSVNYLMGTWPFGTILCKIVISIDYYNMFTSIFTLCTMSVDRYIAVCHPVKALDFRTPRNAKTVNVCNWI
As for `CC(C)NC(=O)N1CCN(C(=O)Cc2ccc(Cl)c(Cl)c2)[C@@H]2[C@@H](N3CCCC3)CCC[C@@H]21`, the inhibition came to 0%.

Molecule `COC(=O)N1CCN(C(=O)Cc2ccc(Cl)c(Cl)c2)[C@@H]2[C@@H](N3CC[C@@H](O)C3)CCC[C@@H]21` showed an inhibition of 5%.

System in a further data set: not listed separately
The data set can be described thus: Ratio of drug level in brain to plasma in Wistar Han rat at 5 mg/kg, iv after 1 hr. The format is ADME, organism-based. The settings on record: read-out: BPR.
`COC(=O)N1CCN(C(=O)Cc2ccc(F)c(F)c2)[C@@H]2[C@@H](N3CC[C@H](O)C3)CCC[C@@H]21.Cl`: the Kp at 1 h worked out at 0.12.

Regarding `COC(=O)N1CCN(C(=O)Cc2ccc(Cl)cc2)[C@@H]2[C@@H](N3CC[C@H](O)C3)CCC[C@@H]21.Cl`, the Kp at 1 h was 0.19.

In the case of `COC(=O)N1CCN(C(=O)Cc2ccc(Cl)c(F)c2)[C@@H]2[C@@H](N3CC[C@H](O)C3)CCC[C@@H]21.Cl`, the Kp at 1 h is 0.12.

For `COC(=O)N1CCN(C(=O)Cc2ccc(F)c(Cl)c2)[C@@H]2[C@@H](N3CC[C@H](O)C3)CCC[C@@H]21.Cl`, the Kp at 1 h is 0.09.

With `COC(=O)N1CCN(C(=O)Cc2cccc(Cl)c2)[C@@H]2[C@@H](N3CC[C@H](O)C3)CCC[C@@H]21.Cl`, the Kp at 1 h was 0.1.

System in a further data set: not listed separately
The data set can be described thus: Plasma concentration in Wistar Han rat at 5 mg/kg, iv measured 1 hr post compound administration. The format is ADME, organism-based.
Conditions: not given
Take `COC(=O)N1CCN(C(=O)Cc2ccc(F)c(F)c2)[C@@H]2[C@@H](N3CC[C@H](O)C3)CCC[C@@H]21.Cl`: the concentration at 1 h amounted to 0.392 µg/mL.

The molecule `COC(=O)N1CCN(C(=O)Cc2ccc(Cl)cc2)[C@@H]2[C@@H](N3CC[C@H](O)C3)CCC[C@@H]21.Cl` showed a concentration at 1 h of 0.374 µg/mL.

`COC(=O)N1CCN(C(=O)Cc2ccc(Cl)c(F)c2)[C@@H]2[C@@H](N3CC[C@H](O)C3)CCC[C@@H]21.Cl` came in with a concentration at 1 h of 0.546 µg/mL.

With `COC(=O)N1CCN(C(=O)Cc2ccc(F)c(Cl)c2)[C@@H]2[C@@H](N3CC[C@H](O)C3)CCC[C@@H]21.Cl`, the concentration at 1 h is 0.465 µg/mL.

Molecule `COC(=O)N1CCN(C(=O)Cc2cccc(Cl)c2)[C@@H]2[C@@H](N3CC[C@H](O)C3)CCC[C@@H]21.Cl` gave a concentration at 1 h of 0.414 µg/mL.
